Legend:
[1] = tested on: A549 (DSMZ ACC 107) cells; assay: cells; format: cell-based; details: Homo sapiens, A549, 120 h, read-out: IC50 [nM] A-549, growth inhibition, 5 days of incubation, MTT assay
Protocol: (§1) 60 μL of serial dilutions of the test compound were given to 120 μL of suspended cells (50.000/mL) in wells of 96-well plates. After 5 days of incubation growth inhibition (IC50) was determined using an MTT assay.^[64]

[2] = tested on: MCF-7 (DSMZ ACC 115) cells; assay: cells; format: cell-based; details: Homo sapiens, MCF7, 120 h, read-out: IC50 [nM] MCF-7, growth inhibition, 5 days of incubation, MTT assay
Protocol: as §1

[3] = tested on: SKOV-3 (DSMZ ATCC HTB 77) cells; assay: cells; format: cell-based; details: Homo sapiens, SK-OV-3, 120 h, read-out: IC50 [nM] SK-OV-3, growth inhibition, 5 days of incubation, MTT assay
Protocol: as §1

[4] = tested on: KB 3.1 (DSMZ ACC 158) cells; assay: cells; details: Homo sapiens, KB 3-1, 120 h, read-out: IC50 [nM] KB-3.1, growth inhibition, 5 days of incubation, MTT assay
[5] = tested on: KB 3.1 (DSMZ ACC 158) cells; assay: Cell proliferation assay under folate free conditions; format: cell-based; details: RPMI-medium without folic acid + 10% dialyzed fetal calf serum; MTT assay after 1, 2 and 5 days (day of the value not given); read-out: IC50 [nM] KB 3.1 (Folate-Ratjadone Conjugates)
Protocol: KB 3.1 (DSMZ ACC 158) cells were cultivated at 37° C. and 10% C002 in RMPI-medium without folic acid (Gibco) with 10% fetal calf serum (Gibco). 120 μL of suspended cells (100.000/mL) were seeded in wells of 96-well plates and after 24 h at 37° C. and 10% CO2 the medium was removed, the cells were washed with PBS and RPMI-medium without folic acid (Gibco)+10% dialyzed fetal calf serum (Sigma) were added to the cells, before after additional 24 h at 37° C. and 10% C002 60 μL of serial dilutions of the test compound were given to cells. After 1, 2 and 5 days of incubation growth inhibition (IC50) was determined using an MTT assay.^[64]

| SMILES | IC50 [5] [nM] | also measured |
| --- | --- | --- |
| C#CCCC(=O)NCCSSCCC(=O)N[C@H](/C=C/C=C(\C)C[C@@H](C)/C=C(C)\C=C\[C@H]1CC=CC(=O)O1)[C@@H]1C[C@@H](O)[C@H](C)[C@H](/C=C/C)O1 [N-(2-((3-(((1R,2E,4E,7R,8Z,10E)-1-((2S,4R,5S,6S)-4-hydroxy-5-methyl-6-((E)-prop-1-en-1-yl)tetrahydro-2H-pyran-2-yl)-5,7,9-trimethyl-11-((R)-6-oxo-3,6-dihydro-2H-pyran-2-yl)undeca-2,4,8,10-tetraen-1-yl)amino)-3-oxopropyl)disulfaneyl)-ethyl)pent-4-ynamide] |  | IC50 [1]: 0.86 nM; IC50 [2]: 0.17 nM; IC50 [3]: 1.09 nM; IC50 [4]: 1.86 nM |
| C/C=C/[C@@H]1O[C@H]([C@@H](/C=C/C=C(\C)C[C@@H](C)/C=C(C)\C=C\[C@H]2CC=CC(=O)O2)NC(=O)OCCc2cn(CCC[C@H](NC(=O)[C@@H](CC(=O)O)NC(=O)[C@@H](CC(=O)O)NC(=O)[C@@H](CC(=O)O)NC(=O)[C@@H](CC(=O)O)NC(=O)[C@@H](CC(=O)O)NC(=O)CC[C@H](NC(=O)c3ccc(NCc4cnc5nc(N)nc(O)c5n4)cc3)C(=O)O)C(=O)O)nn2)C[C@@H](O)[C@@H]1C [FA-5-16R-Aminoratjadone] | 50.3 |  |
| C/C=C/[C@@H]1O[C@H]([C@@H](/C=C/C=C(\C)C[C@@H](C)/C=C(C)\C=C\[C@H]2CC=CC(=O)O2)NC(=O)CCSSC[C@H](NC(=O)CC[C@H](NC(=O)c2ccc(NCc3cnc4nc(N)nc(O)c4n3)cc2)C(=O)O)C(=O)O)C[C@@H](O)[C@@H]1C [FA-SS-16R-Aminoratjadone, N^2-(4-(((2-amino-4-hydroxypteridin-6-yl)methyl)amino)benzoyl)-N^5-((R)-1-carboxy-2-((3-(((1R,2E,4E,7R,8Z,10E)-1-((2S,4R,5S,6S)-4-hydroxy-5-methyl-6-((E)-prop-1-en-1-yl)tetrahydro-2H-pyran-2-yl)-5,7,9-trimethyl-11-((R)-6-oxo-3,6-dihydro-2H-pyran-2-yl)undeca-2,4,8,10-tetraen-1-yl)amino)-3-oxopropyl)disulfaneyl)ethyl)-L-glutamine] | 295 |  |
| C/C=C/[C@@H]1O[C@H]([C@@H](/C=C/C=C(\C)C[C@@H](C)/C=C(C)\C=C\[C@H]2CC=CC(=O)O2)NC(=O)OCCc2cn(-c3ccc(C(=O)NCCCC[C@H](NC(=O)CC[C@H](NC(=O)c4ccc(NCc5cnc6nc(N)nc(O)c6n5)cc4)C(=O)O)C(=O)N[C@H](CCCCN)C(=O)O)cc3)nn2)C[C@@H](O)[C@@H]1C [FA-8-16R-Aminoratjadone, N^2—((S)-4-(4-(((2-amino-4-hydroxypteridin-6-yl)methyl)amino)benzamido)-4-carboxybutanoyl)-N^6-(4-(4-(2-((((1R,2E,4E,7R,8Z,10E)-1-((2S,4R,5S,6S)-4-hydroxy-5-methyl-6-((E)-prop-1-en-1-yl)tetrahydro-2H-pyran-2-yl)-5,7,9-trimethyl-11-((R)-6-oxo-3,6-dihydro-2H-pyran-2-yl)undeca-2,4,8,10-tetraen-1-yl)carbamoyl)oxy)ethyl)-1H-1,2,3-triazol-1-yl)benzoyl)-L-lysyl-D-lysine] | 129 |  |
| C/C=C/[C@@H]1O[C@H]([C@@H](/C=C/C=C(\C)C[C@@H](C)/C=C(C)\C=C\[C@H]2CC=CC(=O)O2)NC(=O)OCc2ccc(NC(=O)[C@H](CCCNC(N)=O)NC(=O)[C@@H](NC(=O)OC[C@@H]3[C@@H]4CCc5nnn(-c6ccc(C(=O)NCCCC[C@H](NC(=O)CC[C@H](NC(=O)c7ccc(NCc8cnc9nc(N)nc(O)c9n8)cc7)C(=O)O)C(=O)N[C@H](CCCCN)C(=O)O)cc6)c5CC[C@@H]43)C(C)C)cc2)C[C@@H](O)[C@@H]1C [FA-8-Val-Cit-PABA-16R-Aminoratjadone] | 39.9 |  |
| C/C=C/[C@@H]1O[C@H](C(/C=C/C=C(\C)C[C@@H](C)/C=C\C=C(/C)[C@H]2CC=CC(=O)O2)NC(=O)OCc2ccc(NC(=O)[C@H](CCCNC(N)=O)NC(=O)[C@@H](NC(=O)OC[C@@H]3[C@@H]4CCc5nnn(-c6ccc(C(=O)NCCCC[C@H](NC(=O)[C@H](CC(=O)O)NC(=O)[C@H](CC(=O)O)NC(=O)[C@H](CCCCNC(=O)c7ccc(-n8nnc9c8CC[C@H]8[C@@H](CC9)[C@H]8COC(=O)N[C@H](C(=O)N[C@@H](CCCNC(N)=O)C(=O)Nc8ccc(COC(=O)NC(/C=C/C=C(\C)C[C@@H](C)/C=C\C=C(/C)[C@H]9CC=CC(=O)O9)[C@@H]9C[C@@H](O)[C@H](C)[C@H](/C=C/C)O9)cc8)C(C)C)cc7)NC(=O)[C@@H](CC(=O)O)NC(=O)[C@@H](CC(=O)O)NC(=O)CC[C@H](NC(=O)c7ccc(NCc8cnc9nc(N)nc(O)c9n8)cc7)C(=O)O)C(=O)O)cc6)c5CC[C@@H]43)C(C)C)cc2)C[C@@H](O)[C@@H]1C (stereo partly drawn) [FA-4-(Val-Cit-PABA-16R-Aminoratjadone)2] | 148 |  |
| C/C=C/[C@@H]1O[C@H]([C@@H](/C=C/C=C(\C)C[C@@H](C)/C=C(C)\C=C\[C@H]2CC=CC(=O)O2)NC(=O)OCCc2cn(CCC[C@H](NC(=O)[C@@H](CC(=O)O)NC(=O)[C@@H](CC(=O)O)NC(=O)[C@@H](CC(=O)O)NC(=O)CC[C@H](NC(=O)c3ccc(NCc4cnc5nc(N)nc(O)c5n4)cc3)C(=O)O)C(=O)N[C@H](CC(=O)O)C(=O)N[C@H](CC(=O)O)C(=O)N[C@H](CCCCN)C(=O)O)nn2)C[C@@H](O)[C@@H]1C [FA-10-16R-Aminoratjadone] | 708 |  |
| C/C=C/[C@@H]1O[C@H]([C@@H](/C=C/C=C(\C)C[C@@H](C)/C=C(C)\C=C\[C@H]2CC=CC(=O)O2)NC(=O)OCc2ccc(NC(=O)[C@H](CCCNC(N)=O)NC(=O)[C@@H](NC(=O)OC[C@@H]3[C@@H]4CCc5nnn(-c6ccc(C(=O)NCCCC[C@H](NC(=O)CC[C@H](NC(=O)CC[C@H](NC(=O)c7ccc(NCc8cnc9nc(N)nc(O)c9n8)cc7)C(=O)O)C(=O)O)C(=O)O)cc6)c5CC[C@@H]43)C(C)C)cc2)C[C@@H](O)[C@@H]1C [FA-6-Val-Cit-PABA-16R-Aminoratjadone] | 223 |  |
| C/C=C/[C@@H]1O[C@H]([C@@H](/C=C/C=C(\C)C[C@@H](C)/C=C(C)\C=C\[C@H]2CC=CC(=O)O2)NC(=O)OCCc2cn(-c3ccc(C(=O)NCCCC[C@H](NC(=O)CC[C@H](NC(=O)CC[C@H](NC(=O)c4ccc(NCc5cnc6nc(N)nc(O)c6n5)cc4)C(=O)O)C(=O)O)C(=O)O)cc3)nn2)C[C@@H](O)[C@@H]1C [FA-6-16R-Aminoratjadone, (3S,8S,13S)-1-(4-(((2-amino-4-hydroxypteridin-6-yl)methyl)amino)phenyl)-19-(4-(4-(2-((((1R,2E,4E,7R,8Z,10E)-1-((2S,4R,5S,6S)-4-hydroxy-5-methyl-6-((E)-prop-1-en-1-yl)tetrahydro-2H-pyran-2-yl)-5,7,9-trimethyl-1-((R)-6-oxo-3,6-dihydro-2H-pyran-2-yl)undeca-2,4,8,10-tetraen-1-yl)carbamoyl)oxy)ethyl)-1H-1,2,3-triazol-1-yl)phenyl)-1,6,11,19-tetraoxo-2,7,12,18-tetraazanonadecane-3,8,13-tricarboxylic acid] | 150 |  |
| C/C=C/[C@@H]1O[C@H]([C@@H](/C=C/C=C(\C)C[C@@H](C)/C=C(C)\C=C\[C@H]2CC=CC(=O)O2)NC(=O)OCc2ccc(NC(=O)[C@H](CCCNC(N)=O)NC(=O)[C@@H](NC(=O)OC[C@@H]3[C@@H]4CCc5nnn(CCC[C@H](NC(=O)[C@@H](CC(=O)O)NC(=O)[C@@H](CC(=O)O)NC(=O)[C@H](CCCn6nnc7c6CC[C@H]6[C@@H](CC7)[C@H]6COC(=O)N[C@H](C(=O)N[C@@H](CCCNC(N)=O)C(=O)Nc6ccc(COC(=O)N[C@H](/C=C/C=C(\C)C[C@@H](C)/C=C(C)\C=C\[C@H]7CC=CC(=O)O7)[C@@H]7C[C@@H](O)[C@H](C)[C@H](/C=C/C)O7)cc6)C(C)C)NC(=O)[C@@H](CC(=O)O)NC(=O)[C@@H](CC(=O)O)NC(=O)[C@H](CCCn6nnc7c6CC[C@H]6[C@@H](CC7)[C@H]6COC(=O)N[C@H](C(=O)N[C@@H](CCCNC(N)=O)C(=O)Nc6ccc(COC(=O)N[C@H](/C=C/C=C(\C)C[C@@H](C)/C=C(C)\C=C\[C@H]7CC=CC(=O)O7)[C@@H]7C[C@@H](O)[C@H](C)[C@H](/C=C/C)O7)cc6)C(C)C)NC(=O)[C@@H](CC(=O)O)NC(=O)[C@@H](CC(=O)O)NC(=O)CC[C@H](NC(=O)c6ccc(NCc7cnc8nc(N)nc(O)c8n7)cc6)C(=O)O)C(=O)O)c5CC[C@@H]43)C(C)C)cc2)C[C@@H](O)[C@@H]1C [FA-11-(Val-Cit-PABA-16R-Aminoratjadone)3] | 45 |  |
| C/C=C/[C@@H]1O[C@H]([C@@H](/C=C/C=C(\C)C[C@@H](C)/C=C(C)\C=C\[C@H]2CC=CC(=O)O2)NC(=O)OCc2ccc(NC(=O)[C@H](CCCNC(N)=O)NC(=O)[C@@H](NC(=O)OC[C@@H]3[C@@H]4CCc5nnn(CCC[C@H](NC(=O)CC[C@H](NC(=O)c6ccc(NCc7cnc8nc(N)nc(O)c8n7)cc6)C(=O)O)C(=O)N[C@H](CCCCN)C(=O)O)c5CC[C@@H]43)C(C)C)cc2)C[C@@H](O)[C@@H]1C [FA-9-Val-Cit-PABA-16R-Aminoratjadone] | 50.9 |  |
